Values quoted from earlier work in patent US20180271890A1, “Solid Pharmaceutical Composition Comprising Amorphous Sofosbuvir” (priority 2015, published 2018).

| Compound | behaviour under stress conditions (40 °C, relative humidity 75%) | relative humidity at which the substance deliquesces (amorphous form) |
| --- | --- | --- |
| CC(C)OC(=O)[C@H](C)N[P@](=O)(OC[C@H]1O[C@@H](n2ccc(=O)[nH]c2=O)[C@](C)(F)[C@@H]1O)Oc1ccccc1 [sofosbuvir, (S)-isopropyl 2-(((S)-(((2R,3R,4R,5R)-5-(2,4-dioxo-3,4-dihydropyrimidin-1(2H)-yl)-4-fluoro-3-hydroxy-4-methyltetrahydrofuran-2-yl)methoxy)(phenoxy)phosphoryl)-amino)propanoate] | deliquesces after a few hours | – |
| CC(C)OC(=O)[C@H](C)N[P@](=O)(OC[C@H]1O[C@@H](n2ccc(=O)[nH]c2=O)[C@](C)(F)[C@@H]1O)Oc1ccccc1 [Amorphous sofosbuvir, (S)-isopropyl 2-(((S)-(((2R,3R,4R,5R)-5-(2,4-dioxo-3,4-dihydropyrimidin-1(2H)-yl)-4-fluoro-3-hydroxy-4-methyltetrahydrofuran-2-yl)methoxy)(phenoxy)phosphoryl)-amino)propanoate] | – | above 50% |
